Converted amounts (≈) assume the structure as drawn. Positions of bridges follow the written chain, without caps; N, C: chain ends. Residues, ends and D or L forms follow the SMILES beside them.
Columns and labels:
[1] = tested on: Mycobacterium tuberculosis mc^26230

Row | SMILES | MIC (Vibrio alginolyticus) | MIC (M. smegmatis mc^2155) | V. alginolyticus MIC (Vibrio alginolyticus) | M. tuberculosis mc^26230 MIC [1] | M. smegmatis mc^2155 MIC (M. smegmatis mc^2155) | P. aeruginosa MIC (P. aeruginosa)
1 | CC[C@H](C)[C@H](NC(=O)[C@H](CCCNC(=N)N)NC(=O)[C@@H](NC(=O)[C@H](CS)NC(=O)[C@@H](NC(=O)[C@@H](N)CCCNC(=N)N)C(C)C)C(C)C)C(=O)N[C@@H](CS)C(=O)N[C@@H](CCCNC(=N)N)C(=O)N[C@@H](CC(N)=O)C(=O)NCC(=O)N[C@@H](CCCNC(=N)N)C(=O)N[C@@H](CS)C(=O)N[C@@H](Cc1ccc(O)cc1)C(=O)N[C@@H](CCCNC(=N)N)C(=O)N[C@@H](CCCNC(=N)N)C(=O)N[C@@H](CS)C(=O)N[C@@H](Cc1c[nH]c2ccccc12)C(=O)N[C@@H](CC(N)=O)C(=O)N[C@H](C(=O)O)[C@@H](C)O [Linear unfolded analogue of Michelicin] (H-RVCVRICRNGRCYRRCWNT-OH; N-terminus and C-terminus assumed) | 0.625 µM (≈ 1.51 µg/mL) | 1.25 µM (≈ 3.02 µg/mL) | – | – | – | –
2 | CC(C)[C@@H]1NC(=O)[C@H](CCCNC(=N)N)NC(=O)[C@H](C(C)C)NC(=O)[C@@H](NC(=O)[C@@H](NC(=O)[C@@H](N)CCCNC(=N)N)C(C)C)CSSC[C@@H](C(=O)N[C@@H](Cc2c[nH]c3ccccc23)C(=O)N[C@@H](CC(N)=O)C(=O)N[C@H](C(=O)O)[C@@H](C)O)NC(=O)[C@H](CCCNC(=N)N)NC(=O)[C@H](CCCNC(=N)N)NC(=O)[C@H](Cc2ccc(O)cc2)NC(=O)[C@@H]2CSSC[C@H](NC1=O)C(=O)N[C@@H](CCCNC(=N)N)C(=O)N[C@@H](CC(N)=O)C(=O)NCC(=O)N[C@@H](CCCNC(=N)N)C(=O)N2 [V1, RVC1VRVC2RNGRC3YRRC4WNT] (H-RVCVRVCRNGRCYRRCWNT-OH; disulfide 3-16, 7-12; N-terminus and C-terminus assumed) | – | – | 0.125 to 0.312 µM | 29.8 to 30.2 µM | 1.15 to 4.21 µM | 2.5 to 5 µM
3 | CC[C@H](C)[C@@H]1NC(=O)[C@@H]2CSSC[C@H](NC(=O)[C@H](C(C)C)NC(=O)[C@H](CCCNC(=N)N)NC(=O)[C@H](C(C)C)NC(=O)[C@@H](NC(=O)[C@H](Cc3ccccc3)NC(=O)[C@@H](N)CCCNC(=N)N)CSSC[C@@H](C(=O)N[C@@H](Cc3c[nH]c4ccccc34)C(=O)N[C@@H](CC(N)=O)C(=O)N[C@H](C(=O)O)[C@@H](C)O)NC(=O)[C@H](CCCCN)NC(=O)[C@H](CCSC)NC1=O)C(=O)N[C@@H](CCCNC(=N)N)C(=O)N[C@@H](CC(N)=O)C(=O)NCC(=O)N[C@@H](CCCNC(=N)N)C(=O)N2 [V2, RFC1VRVC2RNGRC3IMKC4WNT] (H-RFCVRVCRNGRCIMKCWNT-OH; disulfide 3-16, 7-12; N-terminus and C-terminus assumed) | – | – | 0.312 to 0.625 µM | 19.7 to 30.0 µM | 0.72 to 2.95 µM | 2.5 to 5 µM
4 | CC[C@H](C)[C@@H]1NC(=O)[C@@H]2CSSC[C@H](NC(=O)[C@H](C(C)C)NC(=O)[C@H](CCCNC(=N)N)NC(=O)[C@H](C(C)C)NC(=O)[C@@H](NC(=O)[C@@H](NC(=O)[C@@H](N)CCCNC(=N)N)[C@@H](C)CC)CSSC[C@@H](C(=O)N[C@@H](Cc3c[nH]c4ccccc34)C(=O)N[C@@H](CC(N)=O)C(=O)N[C@H](C(=O)O)[C@@H](C)O)NC(=O)[C@H](CCCCN)NC(=O)[C@H](CCSC)NC1=O)C(=O)N[C@@H](CCCNC(=N)N)C(=O)N[C@@H](CC(N)=O)C(=O)NCC(=O)N[C@@H](CCCNC(=N)N)C(=O)N2 [V3, RIC1VRVC2RNGRC3IMKC4WNT] (H-RICVRVCRNGRCIMKCWNT-OH; disulfide 3-16, 7-12; N-terminus and C-terminus assumed) | – | – | 0.625 to 1.25 µM | 22.9 to 29.6 µM | 0.64 to 4.66 µM | 2.5 to 5 µM
5 | CC[C@H](C)[C@H](NC(=O)[C@@H](N)CCCNC(=N)N)C(=O)N[C@H]1CSSC[C@@H](C(=O)N[C@@H](Cc2c[nH]c3ccccc23)C(=O)N[C@@H](CC(N)=O)C(=O)N[C@H](C(=O)O)[C@@H](C)O)NC(=O)[C@H](CCCCN)NC(=O)[C@H](CCSC)NC(=O)[C@H](Cc2ccccc2)NC(=O)[C@@H]2CSSC[C@H](NC(=O)[C@H](C(C)C)NC(=O)[C@H](CCCNC(=N)N)NC(=O)[C@H](C(C)C)NC1=O)C(=O)N[C@@H](CCCNC(=N)N)C(=O)N[C@@H](CC(N)=O)C(=O)NCC(=O)N[C@@H](Cc1ccccc1)C(=O)N2 [V4, RIC1VRVC2RNGFC3FMKC4WNT] (H-RICVRVCRNGFCFMKCWNT-OH; disulfide 3-16, 7-12; N-terminus and C-terminus assumed) | – | – | 0.312 to 0.625 µM | 7.5 to 7.9 µM | 1.49 to 4.15 µM | 2.5 to 5 µM
6 | CC[C@H](C)[C@@H]1NC(=O)[C@H](Cc2ccccc2)NC(=O)[C@H](CC(C)C)NC(=O)[C@@H]2CSSC[C@H](NC(=O)[C@H](CCCNC(=N)N)NC1=O)C(=O)N[C@@H](Cc1ccccc1)C(=O)N[C@@H](CCSC)C(=O)N[C@@H](CCCCN)C(=O)N[C@H](C(=O)N[C@@H](Cc1c[nH]c3ccccc13)C(=O)N[C@@H](CC(N)=O)C(=O)N[C@H](C(=O)O)[C@@H](C)O)CSSC[C@H](NC(=O)[C@H](Cc1ccccc1)NC(=O)[C@@H](N)CCCNC(=N)N)C(=O)N[C@@H](C(C)C)C(=O)N[C@@H](CCCNC(=N)N)C(=O)N[C@@H](C(C)C)C(=O)N2 [V5, RFC1VRVC2LFIRC3FMKC4WNT] (H-RFCVRVCLFIRCFMKCWNT-OH; disulfide 3-16, 7-12; N-terminus and C-terminus assumed) | – | – | 0.625 to 1.25 µM | 5.3 to 7.9 µM | 3.06 to 8.40 µM | >20 µM
7 | CC[C@H](C)[C@H](NC(=O)[C@@H](N)CCCNC(=N)N)C(=O)N[C@H]1CSSC[C@@H](C(=O)N[C@@H](Cc2c[nH]c3ccccc23)C(=O)N[C@@H](CC(N)=O)C(=O)N[C@H](C(=O)O)[C@@H](C)O)NC(=O)[C@H](CCCCN)NC(=O)[C@H](CCSC)NC(=O)[C@H](Cc2ccccc2)NC(=O)[C@@H]2CSSC[C@H](NC(=O)[C@H](C(C)C)NC(=O)[C@H](CCCNC(=N)N)NC(=O)[C@H](C(C)C)NC1=O)C(=O)N[C@@H](CCCNC(=N)N)C(=O)N[C@@H](CC(N)=O)C(=O)NCC(=O)N[C@@H](CCCNC(=N)N)C(=O)N2 [V6, RIC1VRVC2RNGRC3FMKC4WNT] (H-RICVRVCRNGRCFMKCWNT-OH; disulfide 3-16, 7-12; N-terminus and C-terminus assumed) | – | – | 0.125 to 0.312 µM | >30 µM | 1.27 to 2.96 µM | >5 µM
8 | CSCC[C@@H]1NC(=O)[C@H](Cc2ccccc2)NC(=O)[C@@H]2CSSC[C@H](NC(=O)[C@H](C(C)C)NC(=O)[C@H](CCCNC(=N)N)NC(=O)[C@H](C(C)C)NC(=O)[C@@H](NC(=O)[C@@H](NC(=O)[C@H](CO)NC(=O)[C@@H](NC(=O)[C@H](C)NC(=O)[C@H](CCCCN)NC(=O)[C@@H](N)CCCNC(=N)N)C(C)C)[C@@H](C)O)CSSC[C@@H](C(=O)N[C@@H](Cc3c[nH]c4ccccc34)C(=O)N[C@@H](CC(N)=O)C(=O)N[C@H](C(=O)O)[C@@H](C)O)NC(=O)[C@H](CCCCN)NC1=O)C(=O)N[C@@H](CCCNC(=N)N)C(=O)N[C@@H](CC(N)=O)C(=O)NCC(=O)N[C@@H](Cc1ccccc1)C(=O)N2 [V7, RKAVSTC2VRVC3RNGFC4FMKCWNT] (H-RKAVSTCVRVCRNGFCFMKCWNT-OH; disulfide 7-20, 11-16 (inferred); N-terminus and C-terminus assumed) | – | – | 0.125 to 0.312 µM | >30 µM | 9.22 to 13.1 µM | 2.5 to 5 µM
9 | CC[C@H](C)[C@@H]1NC(=O)[C@H](CCCNC(=N)N)NC(=O)[C@H](C(C)C)NC(=O)[C@@H](NC(=O)[C@@H](NC(=O)[C@@H](N)CCCNC(=N)N)C(C)C)CSSC[C@@H](C(=O)N[C@@H](Cc2c[nH]c3ccccc23)C(=O)N[C@@H](CC(N)=O)C(=O)N[C@H](C(=O)O)[C@@H](C)O)NC(=O)[C@H](CCCCN)NC(=O)[C@H](CCSC)NC(=O)[C@H](Cc2ccccc2)NC(=O)[C@@H]2CSSC[C@H](NC1=O)C(=O)N[C@@H](CCCNC(=N)N)C(=O)N[C@@H](CC(N)=O)C(=O)NCC(=O)N[C@@H](Cc1ccccc1)C(=O)N2 [V8, RVC1VRIC2RNGFC3FMKC4WNT] (H-RVCVRICRNGFCFMKCWNT-OH; disulfide 3-16, 7-12; N-terminus and C-terminus assumed) | – | – | 0.125 to 0.312 µM | 7.3 to 11.9 µM | 0.72 to 3.92 µM | 1.25 to 2.5 µM
10 | CSCC[C@@H]1NC(=O)[C@H](Cc2ccccc2)NC(=O)[C@@H]2CSSC[C@H](NC(=O)[C@H](C(C)C)NC(=O)[C@H](CCCNC(=N)N)NC(=O)[C@H](C(C)C)NC(=O)[C@@H](NC(=O)[C@@H](NC(=O)[C@@H](N)CCCNC(=N)N)C(C)C)CSSC[C@@H](C(=O)N[C@@H](Cc3c[nH]c4ccccc34)C(=O)N[C@@H](CC(N)=O)C(=O)N[C@H](C(=O)O)[C@@H](C)O)NC(=O)[C@H](CCCCN)NC1=O)C(=O)N[C@@H](CCCNC(=N)N)C(=O)N[C@@H](CC(N)=O)C(=O)NCC(=O)N[C@@H](Cc1ccccc1)C(=O)N2 [V9, RVC1VRVC2RNGFC3FMKC4WNT] (H-RVCVRVCRNGFCFMKCWNT-OH; disulfide 3-16, 7-12; N-terminus and C-terminus assumed) | – | – | 0.125 to 0.312 µM | 5.1 to 9.1 µM | 1.02 to 3.31 µM | 1.25 to 2.5 µM

— patent US20250051403A1, “ANTIMICROBIAL PEPTIDES, VARIANTS AND CHEMICAL ANALOGUES THEREOF AND THEIR USES” (priority 2021, published 2025)
